Patent US20250011329A1, “SUBSTITUTED PIPERIDINYL-METHYLPURINE PYRIDINES AND RELATED COMPOUNDS AND THEIR USE IN TREATING DISEASES AND CONDITIONS” (K36 Therapeutics, Inc., priority 2023, published 2025)

Columns and labels:
[1] = molecular target: recombinant human NSD2 (Homo sapiens (Human), UniProt O96028); test: NSD2 inhibitory assay (modified RBC HotSpot HMT Assay); assay type: biochemical; conditions: 2 nM NSD2, chicken oligonucleosomes 0.05 mg/ml, 3H-SAM 1 μM, 1 hour at 30° C.
Method: Exemplary compounds were tested for NSD2 inhibitory activity using a modified RBC HotSpot HMT Assay.
A reaction mixture was prepared by adding oligonucleosomes from Chicken (0.05 mg/ml) to freshly prepared reaction buffer containing 50 mM Tris-HCl (pH 8.5), 50 mM NaCl, 5 mM MgCl2, 0.01% Brij35, 1 mM DTT, and 1% DMSO followed by the addition of recombinant human NSD2, (amino acids 2-end) with N-terminal His tag (2 nM; GenBank Accession No. NM_001042424; MW=155.5 kDa; expressed in Sf9 insect cells) and gentle mixing. The test compounds were diluted in DMSO, added to the reaction mixture in nanoliter amounts by using Acoustic Technology (Echo 550, LabCyte Inc. Sunnyvale, CA) and incubated for 20 minutes at room temperature. The reaction was initiated by the addition of S-Adenosyl-L-[methyl-^3H]methionine (3H-SAM; 1 μM), and the mixture was incubated for 1 hour at 30° C. The reaction mixture was delivered to filter paper and the methylated substrate was quantified by scintillation counting. Data analysis was performed using Excel and GraphPad Prism software for IC50 curve fits. For additional information on the histone methyltransferase assay, see, for example, Horiuchi K Y, et al., “Assay Development for Histone Methyltransferases,” Assay Drug Dev Technol. 2013 May; 11(4):227-36.

[2] = molecular target: recombinant human NSD1 (Homo sapiens, UniProt Q96L73); test: NSD1 inhibitory assay; assay type: biochemical; conditions: 2 nM NSD1, chicken oligonucleosomes 0.05 mg/ml, 3H-SAM 1 μM, 1 hour at 30° C.
Method: An exemplary compound was tested for NSD1 inhibitory activity.
A reaction mixture was prepared by adding oligonucleosomes from Chicken (0.05 mg/ml) to freshly prepared reaction buffer containing 50 mM Tris-HCl (pH 8.5), 50 mM NaCl, 5 mM MgCl2, 0.01% Brij35, 1 mM DTT, and 1% DMSO followed by the addition of recombinant human NSD1 (amino acids 2-end) with N-terminal His tag (2 nM) and gentle mixing. The test compounds were diluted in DMSO, added to the reaction mixture in nanoliter amounts by using Acoustic Technology (Echo 550, LabCyte Inc. Sunnyvale, CA) and incubated for 20 minutes at room temperature. The reaction was initiated by the addition of S-Adenosyl-L-[methyl-^3H] methionine (3H-SAM; 1 μM), and the mixture was incubated for 1 hour at 30° C. The reaction mixture was delivered to filter paper and the methylated substrate was quantified by scintillation counting. Data analysis was performed using Excel and GraphPad Prism software for IC50 curve fits. For additional information on the histone methyltransferase assay, see, for example, Horiuchi K Y, et al., “Assay Development for Histone Methyltransferases,” Assay Drug Dev Technol. 2013 May; 11(4):227-36.

recombinant human NSD2, sequence (O96028 2-1365 limits assumed): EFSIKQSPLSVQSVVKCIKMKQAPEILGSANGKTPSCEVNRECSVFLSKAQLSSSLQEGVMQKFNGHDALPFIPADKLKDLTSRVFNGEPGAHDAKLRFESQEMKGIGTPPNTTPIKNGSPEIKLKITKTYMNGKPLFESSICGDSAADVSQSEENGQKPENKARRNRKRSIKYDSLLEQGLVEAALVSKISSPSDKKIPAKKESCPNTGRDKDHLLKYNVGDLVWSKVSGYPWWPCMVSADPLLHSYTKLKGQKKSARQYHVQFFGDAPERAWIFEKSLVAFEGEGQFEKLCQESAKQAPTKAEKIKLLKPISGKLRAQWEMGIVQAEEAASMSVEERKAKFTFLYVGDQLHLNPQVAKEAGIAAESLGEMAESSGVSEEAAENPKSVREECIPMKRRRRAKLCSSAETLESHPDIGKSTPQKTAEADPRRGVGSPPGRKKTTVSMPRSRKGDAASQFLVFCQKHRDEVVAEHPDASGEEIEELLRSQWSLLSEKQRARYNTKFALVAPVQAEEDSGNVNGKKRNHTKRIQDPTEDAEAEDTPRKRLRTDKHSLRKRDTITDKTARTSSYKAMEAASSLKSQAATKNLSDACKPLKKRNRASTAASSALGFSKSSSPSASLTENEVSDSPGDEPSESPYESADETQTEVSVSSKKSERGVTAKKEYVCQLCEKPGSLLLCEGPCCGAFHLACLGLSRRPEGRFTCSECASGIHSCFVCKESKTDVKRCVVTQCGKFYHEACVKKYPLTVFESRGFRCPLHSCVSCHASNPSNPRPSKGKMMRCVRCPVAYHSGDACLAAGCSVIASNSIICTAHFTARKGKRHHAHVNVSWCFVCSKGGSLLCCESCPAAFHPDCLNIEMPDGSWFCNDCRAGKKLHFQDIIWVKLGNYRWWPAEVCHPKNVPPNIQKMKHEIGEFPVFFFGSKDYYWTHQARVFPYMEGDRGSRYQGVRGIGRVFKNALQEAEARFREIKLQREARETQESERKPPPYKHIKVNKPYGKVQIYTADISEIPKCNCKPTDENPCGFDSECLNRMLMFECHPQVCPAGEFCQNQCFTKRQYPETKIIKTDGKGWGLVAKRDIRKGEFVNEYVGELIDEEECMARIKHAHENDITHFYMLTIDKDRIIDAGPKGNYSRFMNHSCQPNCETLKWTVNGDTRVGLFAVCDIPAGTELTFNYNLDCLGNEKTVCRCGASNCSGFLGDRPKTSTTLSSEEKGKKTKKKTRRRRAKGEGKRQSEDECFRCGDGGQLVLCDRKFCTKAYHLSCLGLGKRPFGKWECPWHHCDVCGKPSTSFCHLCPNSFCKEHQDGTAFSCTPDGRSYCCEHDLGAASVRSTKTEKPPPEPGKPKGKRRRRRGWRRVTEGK

Structure (SMILES)	IC50 [1]	IC50 [2]
Nc1ncnc2c1ncn2Cc1cc(-c2cc(F)c(O)cc2F)ncc1N1CCC[C@](N)([C@H](O)C(F)F)C1 [Compound J, 4-(5-((R)-3-amino-3-((S)-2,2-difluoro-1-hydroxyethyl)piperidin-1-yl)-4-((6-amino-9H-purin-9-yl)methyl)pyridin-2-yl)-2,5-difluorophenol]	2 to 20 nM	
COC(=O)COc1cc(F)c(-c2cc(Cn3cnc4c(N)ncnc43)c(N3CCC[C@](N)([C@H](O)C(F)F)C3)cn2)cc1F [III-35, methyl 2-(4-(5-((R)-3-amino-3-((S)-2,2-difluoro-1-hydroxyethyl)piperidin-1-yl)-4-((6-amino-9H-purin-9-yl)methyl)pyridin-2-yl)-2,5-difluorophenoxy)acetate]	< 2 nM	< 1 nM
